Consider two molecules from patent US9795619B2, “Pharmaceutical compositions” (priority 2012, dated 2017).

In data set [1] the test system is HIV. To be noted: cited from earlier work.
Data set [2] concerns HIV. Nature of the data set: human protein adjusted IC90 (reference line in FIG. 1 and FIG. 2). In kind it is cell-based.
A short description of data set [3]: LAP Rat PK study, SQ and IM injections (IV values given for reference). To be noted: in vivo, Sprague-Dawley rats; for Cmax / Tmax / half-life: n=3. On the procedure: Injections were made in Sprague-Dawley rats SQ and IM at 5 and 20 mg/kg doses with T1/2, Cmax, Tmax, and AUC being measured.
Data set [4] is described as follows: LAP Dog PK study, SQ and IM injections (IV values given for reference). The conditions noted are these: in vivo, dose 5 mg/kg, Beagle dogs. On the procedure: Injections were also made in Beagle dogs SQ and IM at 5 and 20 mg/kg doses with T1/2, Cmax, Tmax, and AUC measured.
Data set [5] in a line: LAP Rat PK study, SQ and IM injections (IV values given for reference). Also on record: species or system Sprague-Dawley rats. To be noted: Sprague-Dawley, in vivo, rat (FIG. 1).
Data set [6] is described as follows: LAP Dog PK study, SQ and IM injections (IV values given for reference). The conditions noted are these: in vivo. On the set-up: species or system Beagle dogs.
Where [7] appears, read: dog, sc, SQ, dose 2.5 mg/kg, Beagle dogs, n=3.
Where [8] appears, read: dog, IM, dose 2.5 mg/kg, Beagle dogs, n=3.

Consider `C=C(C)[C@@H]1CC[C@]2(C(=O)O)CC[C@]3(C)[C@H](CC[C@@H]4[C@@]5(C)CC[C@H](OC(=O)CC(C)(C)C(=O)O)C(C)(C)[C@@H]5CC[C@]43C)[C@@H]12` [Bevirimat], for which the “reduced HIV viral load by a mean of” value in the data set with HIV [1] (patients with trough levels >=20 μg/mL and without key baseline Gag polymorphisms at Q369, V370 or T371) is on record as 1.3 log10/mL. For the same molecule, the “HIV viral load reduction versus patients without Gag polymorphisms” value in the data set with HIV [1] (users with Gag polymorphisms at Q369, V370 or T371) is listed as “significantly lower load reductions”.

For `CC(C)C1=C2[C@H]3CC[C@@H]4[C@@]5(C)CC[C@H](OC(=O)CC(C)(C)C(=O)O)C(C)(C)[C@@H]5CC[C@@]4(C)[C@]3(C)CC[C@@]2([C@@H](O)CN(CCN(C)C)Cc2ccc(Cl)cc2)CC1=O` [compound of Formula I, 4-(((3aR,5aR,5bR,7aR,9S,11aR,11bR,13aS)-3a-((R)-2-((4-Chlorobenzyl)(2-(dimethylamino)ethyl)amino)-1-hydroxyethyl)-1-isopropyl-5a,5b,8,8,11a-pentamethyl-2-oxo-3,3a,4,5,5a,5b,6,7,7a,8,9,10,11,11a,11b,12,13,13a-octadecahydro-2H-cyclopenta[a]chrysen-9-yl)oxy)-2,2-dimethyl-4-oxobutanoic acid], the “human protein adjusted IC90” value in the data set on HIV [2] was found to be 4.31 ng/mL. The Cmax turned out to be 100 ± 7.8 ng/mL in data set [3] (IM, dose 5 mg/kg); 178 ± 56.9 ng/mL in data set [3] (IM, dose 20 mg/kg); 170 ± 9.2 ng/mL in data set [3] (sc, SQ, dose 5 mg/kg); 285 ± 48.4 ng/mL in data set [3] (sc, SQ, dose 20 mg/kg); 69.7 ± 7.2 ng/mL in data set [4] (IM, n=3); 59 ± 14.5 ng/mL in data set [4] (sc, SQ, n=3). The Cmax in data set [6] (setting [7]) was found to be 38 ± 11 ng/mL; in data set [6] (setting [8]) it was 59.3 ± 23.2 ng/mL. In addition, the Tmax in data set [3] (IM, dose 5 mg/kg) was 5.3 ± 2.3 h; in data set [3] (IM, dose 20 mg/kg) it was 8 ± 4 h; in data set [3] (sc, SQ, dose 5 mg/kg), 6.7 ± 2.3 h; in data set [3] (sc, SQ, dose 20 mg/kg) it was 6.7 ± 2.3 h; in data set [4] (sc, SQ, n=3), 208 ± 55.4 h; in data set [6] (setting [7]) it was 144 h. The Tmax in data set [6] (setting [8]) was 80 ± 13.9 h; in data set [6] (dog, IM, dose 5 mg/kg, Beagle dogs, n=3), 128 ± 27.7 h. In addition, the half-life in data set [3] (IM, dose 5 mg/kg) was 149 h; in data set [3] (IM, dose 20 mg/kg), 298 h; in data set [3] (sc, SQ, dose 5 mg/kg), 120 h; in data set [3] (sc, SQ, dose 20 mg/kg), 463 h; in data set [4] (IM, n=3), 118 h; in data set [4] (sc, SQ, n=3) it was 127 h. Besides, the half-life in data set [5] (read-out: T1/2 IV (converted)) was 3.4 h; in data set [6] (Beagle, IV, dog (FIG. 2), read-out: T1/2 IV (converted)) it was 6.9 h; in data set [6] (dog, sc, SQ, dose 2.5 mg/kg, Beagle dogs, n=3, read-out: T1/2 (converted)), 96 h; in data set [6] (dog, IM, dose 2.5 mg/kg, Beagle dogs, n=3, read-out: T1/2 (converted)), 72 h. Further, the AUC(0-t) in data set [3] (IM, dose 5 mg/kg, t printed as '= days' (no number)) is 7700 ng·h/mL; in data set [3] (IM, dose 20 mg/kg, t = 42 days) it was 24900 ng·h/mL; in data set [3] (sc, SQ, dose 5 mg/kg, t = 24 days), 8000 ng·h/mL; in data set [3] (sc, SQ, dose 20 mg/kg, t = 57 days) it was 23900 ng·h/mL; in data set [4] (IM, t = 36 days), 16200 ng·h/mL; in data set [4] (sc, SQ, t = 40 days), 17400 ng·h/mL. The AUC(0-t) is 2960 ng·h/mL in data set [5] (read-out: AUC0-24 IV); 4150 ng·h/mL in data set [6] (Beagle, IV, dog (FIG. 2), read-out: AUC0-24 IV); 7900 ng·h/mL in data set [6] (dog, sc, SQ, dose 2.5 mg/kg, Beagle dogs, t = 22 days, read-out: AUC0-t); 8600 ng·h/mL in data set [6] (dog, IM, dose 2.5 mg/kg, Beagle dogs, t = 17 days, read-out: AUC0-t).

A word on the Cmax: it is the peak of the concentration-time curve. A word on the Tmax: it is the time at which the peak concentration occurs.
